According to patent publication US20250170130A1, “MODULATORS OF MYC FAMILY PROTO-ONCOGENE PROTEIN” (Nalo Therapeutics, priority 2022, published 2025):
Read-outs that look alike come from different tables or passages of the source.

Tests used:
MycN = target: T1, MycN (Homo sapiens, UniProt P04198); assay: Degradation of MycN protein in SK-N-BE(2) cells, JESS/Western blot of lysates; assay type: cell-based; conditions: SKNBE2, 24 h; for Dmax at 0.5 µM: read-out: % Degradation of MycN (SKNBE2) 24 h, 0.5 μM; for Dmax at 1 µM: read-out: % Degradation of MycN (SKNBE2) 24 h, 1 μM; for Dmax at 3 µM: read-out: % Degradation of MycN (SKNBE2) 24 h, 3 μM; for Dmax at 6 µM: read-out: % Degradation of MycN (SKNBE2) 24 h, 6 μM
T1 construct: endogenous in cells; host or cells: SK-N-BE(2)
T1 sequence (P04198 1-464): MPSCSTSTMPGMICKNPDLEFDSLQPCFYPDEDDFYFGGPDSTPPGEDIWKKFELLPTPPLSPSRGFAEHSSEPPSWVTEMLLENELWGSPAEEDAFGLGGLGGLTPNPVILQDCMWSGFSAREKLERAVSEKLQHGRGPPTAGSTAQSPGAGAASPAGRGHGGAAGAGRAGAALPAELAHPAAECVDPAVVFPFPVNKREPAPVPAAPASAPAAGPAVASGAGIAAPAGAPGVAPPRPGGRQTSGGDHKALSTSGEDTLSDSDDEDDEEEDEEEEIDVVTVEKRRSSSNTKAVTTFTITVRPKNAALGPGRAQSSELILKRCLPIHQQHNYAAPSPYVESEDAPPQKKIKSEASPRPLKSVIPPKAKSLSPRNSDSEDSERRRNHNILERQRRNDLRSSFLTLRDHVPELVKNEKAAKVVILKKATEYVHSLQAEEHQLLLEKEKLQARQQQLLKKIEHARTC
Method in brief: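 SK-N-BE(2) adherent cells (5E5 per well of a 6 well dish) were grown 24 hrs, then exposed to compounds diluted 1 in 20 in media, with DMSO controls, for 24 hrs. Cells were scraped, pelleted, PBS washed and lysed in RIPA buffer cocktail; after BCA protein quantitation, n-myc was detected by chemiluminescence on JESS/Western blot with tubulin and GAPDH loading controls read in the near infra red channel.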

MycC = target: T2, MycC (Homo sapiens, UniProt P01106); assay: Degradation of MycC protein in L363 cells, JESS/Western blot of lysates; assay type: cell-based; conditions: L-363, 24 h; for Dmax at 0.5 µM: read-out: % Degradation of MycC (L-363) 24 h, 0.5 μM; for Dmax at 1 µM: read-out: % Degradation of MycC (L-363) 24 h, 1 μM; for Dmax at 3 µM: read-out: % Degradation of MycC (L-363) 24 h, 3 μM; for Dmax at 6 µM: read-out: % Degradation of MycC (L-363) 24 h, 6 μM
T2 construct: endogenous in cells; host or cells: L363
T2 sequence (P01106 whole entry): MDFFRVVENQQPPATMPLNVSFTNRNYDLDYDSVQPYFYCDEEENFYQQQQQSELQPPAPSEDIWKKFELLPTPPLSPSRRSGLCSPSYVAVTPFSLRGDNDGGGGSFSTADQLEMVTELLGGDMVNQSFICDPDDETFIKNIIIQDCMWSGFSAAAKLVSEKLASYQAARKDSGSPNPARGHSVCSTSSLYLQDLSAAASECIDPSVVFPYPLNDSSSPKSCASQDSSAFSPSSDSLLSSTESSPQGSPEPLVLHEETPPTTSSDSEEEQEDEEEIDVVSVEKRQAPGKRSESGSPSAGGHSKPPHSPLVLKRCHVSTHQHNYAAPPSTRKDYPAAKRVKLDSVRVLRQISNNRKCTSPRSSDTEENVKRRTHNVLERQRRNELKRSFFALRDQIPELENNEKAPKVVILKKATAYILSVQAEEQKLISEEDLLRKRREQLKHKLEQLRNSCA
Method in brief: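 L363 suspension cells were seeded at 1E6 cells per well and exposed to compound (stock 10 mM in DMSO) for 24 hrs. Cells were collected, spun down, rinsed with PBS, lysed in RIPA buffer cocktail on ice, clarified and kept at −80 degrees. Lysate protein was quantified by BCA, and c-myc was measured on JESS by chemiluminescence with tubulin and GAPDH loading controls in the NIR channel.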

Compound `O=C1c2ccccc2C(=O)N1CC12CC(CN(c3nccc(Nc4cc(C5CCCC5)[nH]n4)n3)C1)C2` [Compound 127, 2-[[3-[4-[(5-Cyclopentyl-1H-pyrazol-3-yl)amino]pyrimidin-2-yl]-3-azabicyclo[3.1.1]heptan-1-yl]methyl]isoindoline-1,3-dione] has a Dmax at 0.5 µM (MycN) of 50 to 79%, a Dmax at 1 µM (MycN) of 80 to 100% and a Dmax at 3 µM (MycN) of 80 to 100%. The Dmax at 6 µM (MycN) was 80 to 100%, the Dmax at 0.5 µM (MycC) was < 20% and the Dmax at 1 µM (MycC) was 80 to 100%. It also gave a Dmax at 3 µM (MycC) of 80 to 100% and a Dmax at 6 µM (MycC) of 80 to 100%.
In the case of `COC1CN(CC23CC(C2)N(c2nccc(Nc4cc(C5CCCC5)[nH]n4)n2)C3)C1` [Compound 177, N-(5-Cyclopentyl-1H-pyrazol-3-yl)-2-[4-[(3-methoxyazetidin-1-yl)methyl]-2-azabicyclo[2.1.1]hexan-2-yl]pyrimidin-4-amine], the Dmax at 0.5 µM (MycN; SKNBE2 cells, 24 h, 0.5 μM) is reported as 20 to 49%, the Dmax at 1 µM (MycN; SKNBE2 cells, 24 h, 1 μM) is reported as < 20% and the Dmax at 3 µM (MycN; SKNBE2 cells, 24 h, 3 μM) is reported as 50 to 79%. The Dmax at 6 µM (MycN; SKNBE2 cells, 24 h, 6 μM) was 50 to 79%, the Dmax at 0.5 µM (MycC; L-363 cells, 24 h, 0.5 μM) was < 20% and the Dmax at 1 µM (MycC; L-363 cells, 24 h, 1 μM) was 20 to 49%. For the same compound, the Dmax at 3 µM (MycC; L-363 cells, 24 h, 3 μM) was 20 to 49% and the Dmax at 6 µM (MycC; L-363 cells, 24 h, 6 μM) was 80 to 100%.
For `CNC[C@H]1CN(c2nccc(Nc3cc(C4CCCC4)[nH]n3)n2)C[C@H]1F` [Compound 181], the Dmax at 0.5 µM (MycN; SKNBE2 cells, 24 h, 0.5 μM) was < 20%, the Dmax at 1 µM (MycN; SKNBE2 cells, 24 h, 1 μM) was < 20% and the Dmax at 3 µM (MycN; SKNBE2 cells, 24 h, 3 μM) was 20 to 49%. For the same compound, the Dmax at 6 µM (MycN; SKNBE2 cells, 24 h, 6 μM) was 80 to 100%, the Dmax at 1 µM (MycC; L-363 cells, 24 h, 1 μM) was < 20% and the Dmax at 6 µM (MycC; L-363 cells, 24 h, 6 μM) was 80 to 100%.
For `CNCC12CC(C1)N(c1ncc(C)c(Nc3cc(C4CCCC4)[nH]n3)n1)C2` [Compound 182, N-(5-Cyclopentyl-1H-pyrazol-3-yl)-5-methyl-2-[4-(methylaminomethyl)-2-azabicyclo[2.1.1]hexan-2-yl]pyrimidin-4-amine], the Dmax at 0.5 µM (MycN; SKNBE2 cells, 24 h, 0.5 μM) was 20 to 49%, the Dmax at 1 µM (MycN; SKNBE2 cells, 24 h, 1 μM) was 20 to 49% and the Dmax at 3 µM (MycN; SKNBE2 cells, 24 h, 3 μM) was 80 to 100%. For the same compound, the Dmax at 6 µM (MycN; SKNBE2 cells, 24 h, 6 μM) was 80 to 100% and the Dmax at 6 µM (MycC; L-363 cells, 24 h, 6 μM) was 80 to 100%.
For `CNCC12CC(C1)N(c1nc3c(c(Nc4cc(C5CCCC5)[nH]n4)n1)CCC3)C2` [Compound 183, N-(5-Cyclopentyl-1H-pyrazol-3-yl)-2-[4-(methylaminomethyl)-2-azabicyclo[2.1.1]hexan-2-yl]-6,7-dihydro-5H-cyclopenta[d]pyrimidin-4-amine], the Dmax at 0.5 µM (MycN; SKNBE2 cells, 24 h, 0.5 μM) was 20 to 49%, the Dmax at 1 µM (MycN; SKNBE2 cells, 24 h, 1 μM) was 50 to 79% and the Dmax at 3 µM (MycN; SKNBE2 cells, 24 h, 3 μM) was 80 to 100%. The Dmax at 6 µM (MycN; SKNBE2 cells, 24 h, 6 μM) was 80 to 100%, the Dmax at 3 µM (MycC; L-363 cells, 24 h, 3 μM) was 80 to 100% and the Dmax at 6 µM (MycC; L-363 cells, 24 h, 6 μM) was 80 to 100%.
With `NC[C@H]1CN(c2nccc(Nc3cc(C4CCCC4)[nH]n3)n2)CCO1` [Compound 187, 2-[(2S)-2-(Aminomethyl)morpholin-4-yl]-N-(5-cyclopentyl-1H-pyrazol-3-yl)pyrimidin-4-amine] the Dmax at 0.5 µM (MycN; SKNBE2 cells, 24 h, 0.5 μM) was 20 to 49%, the Dmax at 1 µM (MycN; SKNBE2 cells, 24 h, 1 μM) was 20 to 49% and the Dmax at 3 µM (MycN; SKNBE2 cells, 24 h, 3 μM) was 20 to 49%. For the same compound, the Dmax at 6 µM (MycN; SKNBE2 cells, 24 h, 6 μM) was 50 to 79%, the Dmax at 0.5 µM (MycC; L-363 cells, 24 h, 0.5 μM) was < 20% and the Dmax at 1 µM (MycC; L-363 cells, 24 h, 1 μM) was 20 to 49%. The Dmax at 3 µM (MycC; L-363 cells, 24 h, 3 μM) was 20 to 49% and the Dmax at 6 µM (MycC; L-363 cells, 24 h, 6 μM) was 50 to 79%.
With `CNC[C@H]1CN(c2nccc(Nc3cc(C4CC4)[nH]n3)n2)C[C@H]1F` [Compound 191, N-(5-Cyclopropyl-1H-pyrazol-3-yl)-2-[(3S,4S)-3-fluoro-4-(methylaminomethyl)pyrrolidin-1-yl]pyrimidin-4-amine] the Dmax at 0.5 µM (MycN; SKNBE2 cells, 24 h, 0.5 μM) was < 20%, the Dmax at 1 µM (MycN; SKNBE2 cells, 24 h, 1 μM) was 20 to 49% and the Dmax at 3 µM (MycN; SKNBE2 cells, 24 h, 3 μM) was 80 to 100%. For the same compound, the Dmax at 6 µM (MycN; SKNBE2 cells, 24 h, 6 μM) was 80 to 100%, the Dmax at 1 µM (MycC; L-363 cells, 24 h, 1 μM) was < 20% and the Dmax at 3 µM (MycC; L-363 cells, 24 h, 3 μM) was 50 to 79%. For the same compound, the Dmax at 6 µM (MycC; L-363 cells, 24 h, 6 μM) was 80 to 100%.
